Assay results taken from US20230416692A1 (BOARD OF REGENTS, THE UNIVERSITY OF TEXAS SYSTEM, priority 2020, published 2023).
Read-outs that look alike come from different tables or passages of the source.

Key:
SARS-CoV-2-Nluc [1] = assay: microbe, parasite or virus in culture; format: cell-based
plasma protein = conditions: data from literature; cited from earlier work
SARS-CoV-2-Nluc [2] = assay: microbe, parasite or virus in culture; format: cell-based; remark: listed apart in the source
[3] = human exposures in the clinics, cited from earlier work; for Cmax: read-out: Exposure (μM): Cmax
[4] = Severe acute respiratory syndrome coronavirus 2, 48 h
[5] = Severe acute respiratory syndrome coronavirus 2

Row | SMILES | CC50 (A549-hACE2 cells; human) | EC50 (SARS-CoV-2-Nluc [1]; [4]) | other results
1 | Nc1ccn([C@@H]2O[C@@](CO)(CCl)[C@@H](O)[C@H]2F)c(=O)n1 [ALS-8112] | > 50 µM | > 10 µM | 
2 | CC(C)CN(C[C@@H](O)[C@H](Cc1ccccc1)NC(=O)O[C@H]1CCOC1)S(=O)(=O)c1ccc(N)cc1 [Amprenavir] | > 50 µM | > 10 µM | Plasma protein binding (%) (plasma protein): 90%; activity against SARS-CoV-2-Nluc (in words) (SARS-CoV-2-Nluc [1]): inactive
3 | COC(=O)N[C@H](C(=O)N[C@@H](Cc1ccccc1)[C@@H](O)CN(Cc1ccc(-c2ccccn2)cc1)NC(=O)[C@@H](NC(=O)OC)C(C)(C)C)C(C)(C)C [Atazanavir] | > 50 µM | > 10 µM | Plasma protein binding (%) (plasma protein): 86%; activity against SARS-CoV-2-Nluc (in words) (SARS-CoV-2-Nluc [1]): inactive
4 | O=C1c2c(O)c(=O)ccn2N([C@@H]2c3ccccc3SCc3c2ccc(F)c3F)[C@@H]2COCCN12 [Baloxavir] | 47 ± 1.3 µM | > 10 µM | 
5 | O=C(NCc1c(F)cc(F)cc1F)c1cn2c(c(O)c1=O)C(=O)N1[C@H]3CC[C@H](C3)O[C@@H]1C2 [Bictegravir] | > 50 µM | > 10 µM | Plasma protein binding (%) (plasma protein): >99%
6 | CCN(CC)CCCC(C)Nc1ccnc2cc(Cl)ccc12 (stereo not drawn) [Chloroquine] | > 50 µM | 1.32 µM | EC50 (SARS-CoV-2-Nluc [1]; [5]): 1.32 µM; EC50 (SARS-CoV-2-Nluc [2]; Severe acute respiratory syndrome coronavirus 2, Vero C1008): 3.52 µM; EC50 (SARS-CoV-2-Nluc [2]; Severe acute respiratory syndrome coronavirus 2, Vero C1008, 48 h): 3.52 µM
7 | Nc1ccn(C[C@@H](CO)OCP(=O)(O)O)c(=O)n1 [Cidofovir] | > 50 µM | > 10 µM | 
8 | CC(C)c1nc(CN(C)C(=O)N[C@@H](CCN2CCOCC2)C(=O)N[C@H](CC[C@H](Cc2ccccc2)NC(=O)OCc2cncs2)Cc2ccccc2)cs1 [Cobicistat] | 47.3 ± 2.5 µM |  | SI (selectivity index) (SARS-CoV-2-Nluc [1]): 17.3; EC50 (SARS-CoV-2-Nluc [1]; [5]): 0.77 to 2.74 µM
9 | CC(C)CN(C[C@@H](O)[C@H](Cc1ccccc1)NC(=O)O[C@H]1CO[C@H]2OCC[C@H]21)S(=O)(=O)c1ccc(N)cc1 [Darunavir] | > 50 µM | > 10 µM | activity against SARS-CoV-2-Nluc (in words) (SARS-CoV-2-Nluc [1]): inactive
10 | O=C1Nc2ccc(Cl)cc2[C@@](C#CC2CC2)(C(F)(F)F)O1 [Efavirenz] | 37.6 ± 10.7 µM | > 9.6 µM | Plasma protein binding (%) (plasma protein): 99.5-99.8%; SI (selectivity index) (SARS-CoV-2-Nluc [1]): <3.9; Exposure (μM): Cmin [3]: 5.6 µM; Cmax [3]: 12.9 µM
11 | Nc1nc(=O)n([C@@H]2CS[C@H](CO)O2)cc1F [Emtricitabine] | > 50 µM | > 10 µM | Plasma protein binding (%) (plasma protein): 4%; activity against SARS-CoV-2-Nluc (in words) (SARS-CoV-2-Nluc [1]): inactive; Cmax [3]: 7.9 µM
12 | C=C1[C@H](CO)[C@@H](O)C[C@@H]1n1cnc2c(=O)[nH]c(N)nc21 [Entecavir] | > 50 µM | > 10 µM | 
13 | NC(=O)c1nc(F)c[nH]c1=O [Favipiravir] | > 50 µM | > 10 µM | 
14 | CC(C)OC(=O)[C@H](C)N[P@+]([O-])(OC[C@H]1O[C@@](C#N)(c2ccc3c(N)ncnn23)[C@](C)(O)[C@@H]1OC(=O)C(C)C)Oc1ccccc1 [GS-6620] |  |  | CC50 (A549-hACE2 cells): > 50 µM; EC50 (SARS-CoV-2-Nluc [1]; read-out: EC50): > 10 µM
15 | COc1ccc2c(O[C@@H]3C[C@H]4C(=O)N[C@]5(P(=O)(O)Cc6c(F)cccc6F)C[C@H]5CCCCCCC[C@H](NC(=O)OC5CCCC5)C(=O)N4C3)cc(-c3csc(NC(C)C)n3)nc2c1Cl [GS-9256] |  |  | CC50 (A549-hACE2 cells): 31.8 ± 10.9 µM; EC50 (SARS-CoV-2-Nluc [1]; read-out: EC50): > 10 µM
16 | CC[C@@H]1C[C@]1(NC(=O)[C@@H]1C[C@@H](Oc2cc(-c3csc(NC(C)C)n3)nc3c(Cl)c(OCCN4CCOCC4)ccc23)CN1C(=O)[C@@H](NC(=O)O[C@@H]1C[C@@H]2C[C@@H]2C1)C(C)(C)C)C(=O)O [GS-9451] |  |  | CC50 (A549-hACE2 cells): > 50 µM; EC50 (SARS-CoV-2-Nluc [1]; read-out: EC50): > 10 µM
17 | C=CC(=O)N1CCC[C@@H](n2nc(-c3ccc(Oc4ccccc4)cc3)c3c(N)ncnc32)C1 [Ibrutinib] | > 50 µM | > 10 µM | 
18 | CC(C)(C)NC(=O)[C@@H]1CN(Cc2cccnc2)CCN1C[C@@H](O)C[C@@H](Cc1ccccc1)C(=O)N[C@H]1c2ccccc2C[C@H]1O [Indinavir] | > 50 µM | > 10 µM | activity against SARS-CoV-2-Nluc (in words) (SARS-CoV-2-Nluc [1]): inactive
19 | COC(=O)N[C@H](C(=O)N1CC2(CC2)C[C@H]1c1ncc(-c2ccc3c(c2)C(F)(F)c2cc(-c4ccc5nc([C@@H]6[C@H]7CC[C@H](C7)N6C(=O)[C@@H](NC(=O)OC)C(C)C)[nH]c5c4)ccc2-3)[nH]1)C(C)C [Ledapisvir] | > 50 µM | > 10 µM | activity against SARS-CoV-2-Nluc (in words) (SARS-CoV-2-Nluc [1]): inactive
20 | Cc1cccc(C)c1OCC(=O)N[C@@H](Cc1ccccc1)[C@@H](O)C[C@H](Cc1ccccc1)NC(=O)[C@H](C(C)C)N1CCCNC1=O [Lopinavir] | 31.5 ± 2.5 µM | 8 to 9 µM | Plasma protein binding (%) (plasma protein): 98-99%; EC50 (SARS-CoV-2-Nluc [1]): 9 ± 0.42 µM
21 | C[C@@]1(O)[C@H](O)[C@@H](CO)O[C@H]1n1ccc2c(N)ncnc21 [MK-0608] |  |  | CC50 (A549-hACE2 cells): > 50 µM; EC50 (SARS-CoV-2-Nluc [1]; read-out: EC50): > 10 µM
